{"source": "paper PMC6934184", "about": "“Selective DNA-PKcs inhibition extends the therapeutic index of localized radiotherapy and chemotherapy” (The Journal of Clinical Investigation, 2019)", "target": "T1, MAP3K8 (COT) (Homo sapiens, UniProt P41279)", "T1 construct": "purchased Thermo Fisher Scientific (Life Technologies) SelectScreen", "T1 sequence (P41279 whole entry)": "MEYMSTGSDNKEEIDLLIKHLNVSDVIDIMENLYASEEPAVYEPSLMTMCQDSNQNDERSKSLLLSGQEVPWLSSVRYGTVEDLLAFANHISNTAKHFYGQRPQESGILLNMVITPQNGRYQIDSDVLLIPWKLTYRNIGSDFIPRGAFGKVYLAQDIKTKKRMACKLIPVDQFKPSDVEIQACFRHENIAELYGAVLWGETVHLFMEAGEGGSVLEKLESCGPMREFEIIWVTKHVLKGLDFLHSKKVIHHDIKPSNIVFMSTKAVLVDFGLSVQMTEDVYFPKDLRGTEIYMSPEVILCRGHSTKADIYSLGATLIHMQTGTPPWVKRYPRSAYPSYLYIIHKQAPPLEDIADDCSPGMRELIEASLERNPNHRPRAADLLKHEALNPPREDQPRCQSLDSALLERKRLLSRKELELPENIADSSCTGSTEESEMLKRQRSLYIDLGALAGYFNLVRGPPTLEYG", "assay": "SelectScreen Z'LYTE", "assay_type": "biochemical", "conditions": "ATP 100 µM", "procedure,_shortened": "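Percent values come from Thermo SelectScreen profiling of NU5455, combining activity and binding assays. CSF1R was run in Z'LYTE format at Km app ATP, and CAMK1 in Adapta format with ATP listed at 10.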"}
{"smiles": "CN(C(=O)CN1CCOCC1)c1ccc2sc3c(-c4cccc5c(=O)cc(N6CC7CCC(C6)O7)oc45)cccc3c2c1", "note": "[NU5455]", "values": [{"measurement": "inhibition at 1 µM", "value": 3.5, "unit": "%"}]}
